Each structure is given as a SMILES string. ≈ marks a conversion by molar mass, not a printed value. Entries after “also recorded” stand apart in the source; their conditions may differ. Like-named read-outs stand apart in the source and are kept apart here.

The IC50 is the concentration at which inhibition is half-maximal.

For series [1], the system named is A549. Nature of the series: MTT cytotoxicity assay, A549. The settings on record: for antiproliferative effect of isolated compounds (in words): A549 lung cancer cells, tested concentrations 0.5–50 µM; for IC50: Homo sapiens, A549, 48 h, MTT, 48 h, read-out: IC50 ± SEM, A549. It counts as cell-based, human. As to the method: (§1) Adenocarcinomic human alveolar basal epithelial cell line (A549), human cervical cancer cell line (HeLa), human breast cancer cell line (MCF‐7), human hepatocellular carcinoma cell line (HepG2), and human bronchial epithelial cell line (BEAS‐2B) were used for the cytotoxicity test panel of crude extract. […] Therefore, A549 was used in further activity‐guided fractionation and isolation studies. The cell lines were cultured in Dulbecco's Modified Eagle Medium (DMEM) supplemented with 10% fetal bovine serum (FBS), 1% L‐glutamine, and 1% penicillin‐streptomycin. Cells were maintained in an incubator at 37°C under 5% CO2.
(§2) MTT assay was used to determine the cytotoxic activity of the crude extract, subextracts, main fractions, and isolated compounds. MTT assay, called the “gold standard” of cell viability tests, is based on measuring metabolic activity. The cells reaching sufficient confluence were counted and plated in 96‐well plates (6 × 10^3 cells/well). After 24 h, cells were treated with five concentrations of the extracts (1–100 µg/mL), main fractions (1–100 µg/mL), or pure compounds (0.5–50 µM) in DMSO. Doxorubicin (10/3/1/0.3 µM) was used as a positive control. The plates were incubated with test materials for 48 h. After treatment, the supernatant was removed, and fresh medium and MTT solution (1 g/L in PBS) were added to each well. The cells were incubated for three h at 37°C. The resulting formazan crystals were dissolved in DMSO, and finally, the absorbance was detected at 570 nm using a spectrophotometer (SpectraMax i3x; Molecular Devices, San Jose, CA, USA). All data were collected from three independent experiments, and at least n = 6 data points were obtained. IC50 values were calculated as µg/mL for extracts or fractions and as µM for pure compounds.
(In general: Tetrazolium dyes change colour on reduction, which living cells bring about.)

The subject of series [2] is Beas‐2B. Nature of the series: MTT cytotoxicity assay, Beas‐2B healthy cell line. To be noted: for IC50: Homo sapiens, BEAS-2B, 48 h, MTT, read-out: IC50 ± SEM, Beas‐2B. The series is classed as cell-based, human. As to the method: as §1, §2
Series [3] relates to A549. Nature of the series: Selectivity index (IC50 non‐cancerous cells / IC50 cancerous cells). It counts as cell-based, human. The settings on record: IC50 Beas‐2B / IC50 A549. As to the method:
The selectivity index (SI), which indicates the selectivity between cancer and normal cells, was calculated. The compounds with an SI greater than 1 are more likely to inhibit cancer cells than non‐cancerous cells. SI values were calculated by the formula of [(IC50 values of non‐cancerous cells)/(IC50 values of cancerous cells)].

In series [4] the test system is MCF‐7 cells. More on the design: method as in earlier work. To be noted: isolated from Sansevieria cylindrica; cited from earlier work.
Where [5] appears, read: isolated compounds 0.5–50 µM (Table 4).
The mark [6] stands for this setting: doxorubicin positive control (Table 2 footnote).
Where [7] appears, read: doxorubicin positive control (Table 3 footnote).

`COc1cc(O)c(C(=O)C[C@H](O)c2ccc(O)c(CC=C(C)C)c2)c(O)c1` [Compound 3, 2',6'‐dihydroxy‐4'‐methoxy‐3''‐(ɤ,ɤ‐dimethylallyl)‐4''‐hydroxy β‐hydroxydihydrochalcone]: the “antiproliferative effect of isolated compounds (in words)” value (“antiproliferative effect” for short) in series [1] was “significant activity”. The 50% inhibitory concentration (IC50) in series [1] (setting [5]) came to 13700 ± 800 nM; in series [2] (setting [5]), 12000 ± 1500 nM. Also, in series [2] (normal cells (Beas‐2B)), the “cytotoxicity against normal cells compared with doxorubicin (in words)” value is “lower cytotoxicity against normal cells than doxorubicin”. Moreover, in series [3] (Table 4), the “SI (selectivity index)” value came out at 0.87.

`COc1cccc2c1C(=O)c1c(O)c3c(c(O)c1C2=O)C[C@@](O)(C(=O)CO)C[C@@H]3O[C@H]1C[C@H](N)[C@H](O)[C@H](C)O1` [Dox, doxorubicin, reference compound]: the IC50 in series [1] (setting [6]) amounted to 820 ± 130 nM; in series [1] (setting [7]), 590 ± 50 nM; in series [1] (setting [5]) it was 590 ± 50 nM; in series [2] (setting [6]), 340 ± 20 nM; in series [2] (setting [7]), 70 ± 17 nM; in series [2] (setting [5]) it was 70 ± 17 nM. Besides, in series [3] (Table 3), the “SI (selectivity index)” value came to 0.12.

Take `CC(C)(O)[C@H]1Cc2cc3ccc(=O)oc3cc2O1` [Compound 4, nodakenetin]: in series [1], the “antiproliferative effect” value is given as “did not show an antiproliferative effect; also recorded: did not show antiproliferative activity”. Further, the IC50 in series [1] (setting [5]) and in series [2] (setting [5]) was more than 50000 nM in each case.

For `O=C(O)c1cc2ccc(=O)oc2cc1O` [Compound 1, umbelliferone 6‐carboxylic acid], the “antiproliferative effect” value in series [1] is on record as “did not show an antiproliferative effect; also recorded: did not show antiproliferative activity”. The IC50 in series [1] (setting [5]) and in series [2] (setting [5]) was more than 50000 nM each time.

In the case of `COc1c(O)ccc(C(=O)C(CO)Cc2ccc3c(c2)OCO3)c1O` (stereo not shown) [2′,4′‐dihydroxy‐3′‐methoxy‐3,4‐methylenedioxy‐8‐hydroxymethylene dihydrochalcone], the “IC50, cytotoxic effect against MCF‐7 cells” value in series [4] is reported as 34 µg/mL (≈ 98.2 µM).

Consider `O=c1ccc2ccc(O)cc2o1` [Compound 2, umbelliferone], for which the “antiproliferative effect” value in series [1] is on record as “did not show an antiproliferative effect; also recorded: did not show antiproliferative activity”. In addition, the half-inhibitory concentration (IC50) in series [1] (setting [5]) and in series [2] (setting [5]) was more than 50000 nM throughout.

Source of the values: PMC12629158, “Cytotoxic Activity of Opopanax hispidus (Friv.) Griseb.: Characterization of a New Chalcone‐type Compound” (Chemistry & Biodiversity, 2025).
